Blank lines part the entries; values can stand above or below the molecule they belong to.
Assays:
[1] = tested on: Plasmodium falciparum; assay: Antimalarial activity against chloroquine-sensitive Plasmodium falciparum 3D7; settings: 3D7, read-out: ED50
[2] = tested on: Plasmodium falciparum; assay: Antimalarial activity against chloroquine-resistant Plasmodium falciparum K1; format: functional; settings: read-out: ED50 (the source's name)
[3] = tested on: Plasmodium falciparum; assay: Antimalarial activity against chloroquine-resistant Plasmodium falciparum FCR-3/Gambia infected in human type A+ erythrocytes after 48 hrs by [3H]-hypoxanthine incorporation assay; format: functional, organism-based
[4] = tested on: Plasmodium falciparum; assay: Antimalarial activity against chloroquine-sensitive Plasmodium falciparum D6 infected in human type A+ erythrocytes after 48 hrs by [3H]-hypoxanthine incorporation assay; format: functional, organism-based
[5] = tested on: Plasmodium falciparum; assay: Antimalarial activity against chloroquine-resistant Plasmodium falciparum FcM29 infected in human type A+ erythrocytes after 48 hrs by [3H]-hypoxanthine incorporation assay; format: functional, organism-based
[6] = tested on: Plasmodium falciparum; assay: Antimalarial activity against chloroquine-sensitive Plasmodium falciparum F32 infected in human type A+ erythrocytes after 48 hrs by [3H]-hypoxanthine incorporation assay; format: functional, organism-based
[7] = tested on: Plasmodium falciparum; assay: Antimalarial activity against chloroquine-resistant Plasmodium falciparum Palo Alto/Ouganda infected in human type A+ erythrocytes after 48 hrs by [3H]-hypoxanthine incorporation assay; format: functional, organism-based
[8] = tested on: Plasmodium falciparum; assay: Antimalarial activity against chloroquine-resistant Plasmodium falciparum FcB1/Columbia infected in human type A+ erythrocytes after 48 hrs by [3H]-hypoxanthine incorporation assay; format: functional, organism-based
[9] = tested on: Plasmodium falciparum; assay: Antimalarial activity against synchronous culture of Plasmodium falciparum W2 ring stage infected in human erythrocytes after 48 hrs by flow cytometry; format: functional, organism-based; settings: W2, 48 h
[10] = tested on: Plasmodium falciparum; assay: Antimalarial activity against Plasmodium falciparum 3D7 infected in human erythrocytes after 72 hrs by SYBR Green-1 staining based fluorescence assay; format: functional, organism-based; settings: 3D7, 72 h
[11] = tested on: Plasmodium falciparum; assay: Antimalarial activity against chloroquine-sensitive Plasmodium falciparum 3D7 infected in human type A+ erythrocytes after 48 hrs by [3H]-hypoxanthine incorporation assay; format: functional, organism-based
[12] = tested on: Plasmodium falciparum; assay: Antimalarial activity against chloroquine-resistant Plasmodium falciparum K1 infected in human type A+ erythrocytes after 48 hrs by [3H]-hypoxanthine incorporation assay; format: functional, organism-based
[13] = tested on: Plasmodium falciparum; assay: Antimalarial activity against chloroquine-resistant Plasmodium falciparum W2 infected in human type A+ erythrocytes after 24 hrs by [3H]-hypoxanthine incorporation assay; format: functional, organism-based
[14] = tested on: Plasmodium falciparum; assay: Antimalarial activity against chloroquine-sensitive Plasmodium falciparum 3D7 infected in human type A+ erythrocytes after 24 hrs by [3H]-hypoxanthine incorporation assay; format: functional, organism-based
[15] = tested on: Plasmodium falciparum; assay: Antimalarial activity against chloroquine-sensitive Plasmodium falciparum 3D7 infected in human erythrocytes after 72 hrs by SYBR Green-1 staining based fluorescence assay; format: functional, organism-based; settings: 3D7, 72 h

IC50 [10]: < 100 nM
Compound: C=C[C@H]1CN2CC[C@H]1C[C@H]2[C@H](OC(=O)CNC(=O)[C@@H](NC(=O)OCc1ccccc1)[C@@H](C)CC)c1ccnc2ccc(OC)cc12

IC50 [15]: 12 to 207 nM
Compound: C=C[C@H]1CN2CC[C@H]1C[C@H]2[C@H](OC(=O)[C@@H](NC(=O)c1cn(C2CC2)c2cc(N3CCN(CC)CC3)c(F)cc2c1=O)[C@@H](C)CC)c1ccnc2ccc(OC)cc12

IC50 [9]: 11 to 59 nM
Compound: O=C(/C=C/c1ccc([N+](=O)[O-])cc1)NCCCCNc1ccnc2cc(Cl)ccc12

IC50 [9]: 11 to 59 nM
Compound: O=C(/C=C/c1ccccc1[N+](=O)[O-])NCCCCNc1ccnc2cc(Cl)ccc12

IC50 [9]: 11 to 59 nM
Compound: Nc1ccc(/C=C/C(=O)NCCCCNc2ccnc3cc(Cl)ccc23)cc1

IC50 [9]: 11 to 59 nM
Compound: O=C(/C=C/c1cccc(F)c1)NCCCCNc1ccnc2cc(Cl)ccc12

IC50 [15]: > 20000 nM
Compound: C[C@H]1COc2c(N3CCN(C)CC3)c(F)cc3c(=O)c(C(=O)O)cn1c23 [LEVOFLOXACIN]

IC50 [15]: 12 to 207 nM
Compound: C=C[C@H]1CN2CC[C@H]1C[C@H]2[C@H](OC(=O)CNC(=O)c1cn(C2CC2)c2cc(N3CCN(CC)CC3)c(F)cc2c1=O)c1ccnc2ccc(OC)cc12

IC50 [10]: < 100 nM
Compound: C=C[C@H]1CN2CC[C@H]1C[C@H]2[C@H](OC(=O)[C@@H](CSCc1ccccc1)NC(=O)OCc1ccccc1)c1ccnc2ccc(OC)cc12

Second part, the molecule before the results:

Compound: CCN(CC)CCCC(C)Nc1ccnc2cc(Cl)ccc12 (centres undefined) [CHLOROQUINE]
EC50 [1]: 20 nM | EC50 [2]: 1030 nM

Compound: CC1(C)COC2(CCC(N[C@H]3CC[C@H](Nc4ccnc5cc(Cl)ccc45)CC3)CC2)OO1 (some centres undefined)
IC50 [3]: 7 to 24 nM | IC50 [4]: 7 to 24 nM | IC50 [5]: 7 to 24 nM | IC50 [6]: 7 to 24 nM | IC50 [7]: 7 to 24 nM | IC50 [8]: 7 to 24 nM

Compound: Cc1ccc(/C=C/C(=O)NCCCCNc2ccnc3cc(Cl)ccc23)cc1
IC50 [9]: 11 to 59 nM

Compound: C=C[C@H]1CN2CC[C@H]1C[C@H]2[C@H](OC(=O)CNC(=O)OC(C)(C)C)c1ccnc2ccc(OC)cc12
IC50 [10]: < 100 nM

Compound: C=C[C@H]1CN2CC[C@H]1C[C@H]2[C@H](OC(=O)[C@H](C)NC(=O)[C@H](Cc1ccccc1)NC(=O)CNC(=O)OCc1ccccc1)c1ccnc2ccc(OC)cc12
IC50 [10]: < 100 nM

Compound: O=C1OC(CN2CCN(c3ccccc3F)CC2)CN1CCCCCCNc1ccnc2cc(Cl)ccc12 (centres undefined)
IC50 [11]: 62 to 430 nM | IC50 [12]: 62 to 430 nM

Compound: O[C@@]12OOC3(C=C1C[C@@H]1C=C[C@H]2C1)CCN(c1ccnc2cc(Cl)ccc12)CC3
IC50 [13]: 6050 to 6750 nM | IC50 [14]: 6050 to 6750 nM

Compound: O=C1OC(CN2CCN(c3ccccc3F)CC2)CN1CCCCNc1ccnc2cc(Cl)ccc12 (centres undefined)
IC50 [11]: 62 to 430 nM | IC50 [12]: 62 to 430 nM

Compound: CN(C)c1ccc(/C=C/C(=O)NCCCCNc2ccnc3cc(Cl)ccc23)cc1
IC50 [9]: 11 to 59 nM

Compound: C=C[C@H]1CN2CC[C@H]1C[C@H]2[C@H](OC(=O)[C@H](CC(C)C)NC(=O)c1cn(CC)c2nc(C)ccc2c1=O)c1ccnc2ccc(OC)cc12
IC50 [15]: 12 to 207 nM

Compound: O=C1OC(CN2CCN(c3ccccc3F)CC2)CN1CCCNc1ccnc2cc(Cl)ccc12 (centres undefined)
IC50 [11]: 62 to 430 nM | IC50 [12]: 62 to 430 nM

Compound: O=C(/C=C/c1cccc([N+](=O)[O-])c1)NCCCCNc1ccnc2cc(Cl)ccc12
IC50 [9]: 11 to 59 nM

Compound: O=C1OC(CN2CCN(c3ccc(F)cc3)CC2)CN1CCNc1ccnc2cc(Cl)ccc12 (centres undefined)
IC50 [11]: 62 to 430 nM | IC50 [12]: 62 to 430 nM

Compound: C=C[C@H]1CN2CC[C@H]1C[C@H]2[C@H](OC(=O)[C@H](C)NC(=O)OC(C)(C)C)c1ccnc2ccc(OC)cc12
IC50 [10]: < 100 nM

Compound: C=C[C@H]1CN2CC[C@H]1C[C@H]2[C@H](OC(=O)[C@H](CCC(=O)OCc1ccccc1)NC(=O)OC(C)(C)C)c1ccnc2ccc(OC)cc12
IC50 [10]: < 100 nM

Compound: CO[C@@]12OOC3(C=C1C[C@@H]1C=C[C@H]2C1)CCN(c1ccnc2cc(Cl)ccc12)CC3
IC50 [13]: 185 to 240 nM | IC50 [14]: 185 to 240 nM

Compound: C=C[C@H]1CN2CC[C@H]1C[C@H]2[C@H](OC(=O)[C@H](C)NC(=O)c1cn2c3c(c(N4CCN(C)CC4)c(F)cc3c1=O)OC[C@@H]2C)c1ccnc2ccc(OC)cc12
IC50 [15]: 12 nM

Compound: C=C[C@H]1CN2CC[C@H]1C[C@H]2[C@H](OC(=O)[C@H](Cc1ccccc1)NC(=O)c1cn2c3c(c(N4CCN(C)CC4)c(F)cc3c1=O)OC[C@@H]2C)c1ccnc2ccc(OC)cc12
IC50 [15]: 12 to 207 nM

Reference: ChEMBL document CHEMBL4190314, “Quinoline hybrids and their antiplasmodial and antimalarial activities” (Eur J Med Chem, 2017)
